Patent US20240099214A1, “PLANT DEFENCE GENE EXPRESSION” (UPL Corporation Limited, priority 2021, published 2024)

How the values were obtained:
[1] = tested on: 1-aminocryclopropane-1-carboxylate oxidase-like protein (gene 6, Solyc11g072100.1); test: qRT-PCR expression of gene 6 in tomato leaves; format: in vivo, Tomato ecotype corbarino; design: key: relative expression normalized to a-tubulin housekeeping gene
Description: (§1) Tomato ecotype “corbarino” reported to be susceptible to TSWV infection was used in the experiment. Plants were grown in pots in a climatic chamber with a photoperiod of 16/8 hour at 25° C.
(§2) The viral strain (TSWV PV PV-0393) was utilized in the experiment. The virus was mechanically inoculated and propagated on tomato “corbarino”. The inoculum was prepared in an ice-cooled mortar grounding 1 gr of infected tomato tissue in 10 ml of Na-phosphate buffer 0.01M. The fresh prepared inoculum was stored in ice before use. Tomato plants at BBCH16 were dusted with Carborundum 600 mesh and selected leaves were rubbed with some droplets of inoculum. After 5 min. plants were sprayed with sterile water to remove the excess of inoculum and preserve the cell turgor.
(§3) Four treatments were compared: i) Mock inoculated; ii) TSWV; iii) 0.25% Laminarin; iv) 0.25% Laminarin+TSWV. In the last treatment the virus was inoculated 24 hrs after the laminarin application.
(§4) Total RNA was extracted from systemic infected tomato leaves by using the Quick-RNA Plant Kit (Zymo Research) following the manufacturer instructions. The extractions were carried out using three plants after 12 h, 24 h, 48 h, 72 h, 7 days after inoculation. Leaves were instantly frozen in liquid nitrogen after cutting to avoid any deterioration of the sample as well as any defense reaction. The RNA concentration was quantified by measuring the absorbance at 260 nm using a Nanodrop 2000 (Thermofisher). The purity of all of the RNA samples was assessed at an absorbance ratio of OD260/280 and OD260/230, while its structural integrity was checked by agarose gel electrophoresis. Only high-quality RNA with OD 260/280 and OD 260/230>2 was used for subsequent steps. Single-stranded cDNA was synthesized from 1 μg of total RNA using an iScript™ Select cDNA Synthesis Kit and random hexamers as primers (Bio-Rad, Milan, Italy), according to the manufacturer's instructions. Three biological replicates were created from the 3 leaves collected to test 15 genes. Alpha tubulin was used as reference gene.
(§5) qPCR reactions were performed with BioRad (Applied Biosystems, Foster City, CA, USA) using SYBR R Green. Each reaction was performed in 20 μl containing 10 μl of 2× Power SYBR Green PCR Master Mix (Life Technologies), 0.2-0.3 μM primers and cDNA samples diluted 1:20. Each qPCR reaction was performed in triplicate. Reactions were run using the cycling parameter described previously (Reid et al., 2006) and the qPCR data were analyzed by the Ct method (Pfaffl, 2001). In order to analyze the qPCR data, a-tubulin gene was used as housekeeping to determine the relative expression level of the other genes analyzed in this work. For the determination of qPCR efficiency of each primer pairs, a standard curve was performed using the following cDNA dilutions: 1:4, 1:16, 1:64; 1:256 and 1:1024. Every measurement was made in triplicate. The corresponding qPCR efficiencies (E) were calculated for every primer pair with the software 7300 System SDS software (Applied Biosystems, Foster City, CA, USA) according to the equation E=(10−1/slope−1)×100 (Rutledge and Stewart, 2008).
(§6) The significance of the differences between the gene expressions levels were compared by one-way ANOVA (p=0.01) and the means were separated by Tukey post-hoc test using SPSS ver.26 ([…]).

[2] = tested on: Pathogenesis-related protein P4 (gene 11, M69247.1); test: qRT-PCR expression of gene 11 in tomato leaves; format: in vivo, Tomato ecotype corbarino; design: key: relative expression normalized to a-tubulin housekeeping gene
Description: as §1, §2, §3, §4, §5, §6

laminarin
RQ1 ([1]; 12 hr, Laminarin alone): 0.9088
RQ2 ([1]; 12 hr, Laminarin alone): 0.971
RQ3 ([1]; 12 hr, Laminarin alone): 0.8924
RQ mean ([1]; 12 hr, Laminarin alone): 0.9241
RQ1 ([1]; 24 hr, Laminarin + virus): 13.422
RQ2 ([1]; 24 hr, Laminarin + virus): 17.528
RQ3 ([1]; 24 hr, Laminarin + virus): 12.610
RQ mean ([1]; 24 hr, Laminarin + virus): 14.520
RQ1 ([1]; 24 hr, Laminarin alone): 16.709
RQ2 ([1]; 24 hr, Laminarin alone): 18.603
RQ3 ([1]; 24 hr, Laminarin alone): 0.8182
RQ mean ([1]; 24 hr, Laminarin alone): 14.498
RQ1 ([1]; 48 hr, Laminarin + virus): 14.823
RQ2 ([1]; 48 hr, Laminarin + virus): 17.395
RQ3 ([1]; 48 hr, Laminarin + virus): 0.9742
RQ mean ([1]; 48 hr, Laminarin + virus): 13.987
RQ1 ([1]; 48 hr, Laminarin alone): 16.033
RQ2 ([1]; 48 hr, Laminarin alone): 16.927
RQ3 ([1]; 48 hr, Laminarin alone): 10.675
RQ mean ([1]; 48 hr, Laminarin alone): 14.545
RQ1 ([1]; 72 hr, Laminarin + virus): 26.404
RQ2 ([1]; 72 hr, Laminarin + virus): 20.406
RQ3 ([1]; 72 hr, Laminarin + virus): 19.154
RQ mean ([1]; 72 hr, Laminarin + virus): 21.988
RQ1 ([1]; 72 hr, Laminarin alone): 27.013
RQ2 ([1]; 72 hr, Laminarin alone): 20.615
RQ3 ([1]; 72 hr, Laminarin alone): 19.604
RQ mean ([1]; 72 hr, Laminarin alone): 22.410
RQ1 ([2]; 12 hr, Laminarin + virus): 12.101
RQ2 ([2]; 12 hr, Laminarin + virus): 11.431
RQ3 ([2]; 12 hr, Laminarin + virus): 10.206
RQ mean ([2]; 12 hr, Laminarin + virus): 11.246
RQ1 ([2]; 12 hr, Laminarin alone): 0.9441
RQ2 ([2]; 12 hr, Laminarin alone): 0.8925
RQ3 ([2]; 12 hr, Laminarin alone): 11.302
RQ mean ([2]; 12 hr, Laminarin alone): 0.9889
RQ1 ([2]; 24 hr, Laminarin + virus): 13.862
RQ2 ([2]; 24 hr, Laminarin + virus): 11.424
RQ3 ([2]; 24 hr, Laminarin + virus): 11.236
RQ mean ([2]; 24 hr, Laminarin + virus): 12.174
RQ1 ([2]; 24 hr, Laminarin alone): 17.183
RQ2 ([2]; 24 hr, Laminarin alone): 12.595
RQ3 ([2]; 24 hr, Laminarin alone): 13.075
RQ mean ([2]; 24 hr, Laminarin alone): 14.284
RQ1 ([2]; 48 hr, Laminarin + virus): 28.058
RQ2 ([2]; 48 hr, Laminarin + virus): 20.254
RQ3 ([2]; 48 hr, Laminarin + virus): 34.812
RQ mean ([2]; 48 hr, Laminarin + virus): 27.708
RQ1 ([2]; 48 hr, Laminarin alone): 34.926
RQ2 ([2]; 48 hr, Laminarin alone): 33.905
RQ3 ([2]; 48 hr, Laminarin alone): 24.218
RQ mean ([2]; 48 hr, Laminarin alone): 31.016
RQ1 ([2]; 72 hr, Laminarin + virus): 80.672
RQ2 ([2]; 72 hr, Laminarin + virus): 76.025
RQ3 ([2]; 72 hr, Laminarin + virus): 53.346
RQ mean ([2]; 72 hr, Laminarin + virus): 70.014
RQ1 ([2]; 72 hr, Laminarin alone): 47.958
RQ2 ([2]; 72 hr, Laminarin alone): 51.518
RQ3 ([2]; 72 hr, Laminarin alone): 48.365
RQ mean ([2]; 72 hr, Laminarin alone): 49.280
